Patent US20210284621A1 (priority 2018, published 2021)
Like-named read-outs stand apart in the source and are kept apart here.

How the values were obtained:
[1] = biological target: T1, CB1 receptor (Homo sapiens, UniProt P21554); assay: cAMP Assay #2: Hit Hunter cAMP assay, Gi-coupled agonist activity, CB1; assay type: cell-based; set-up: host or cells: PathHunter cell lines
Description: (§1) Compounds of the invention were assayed in the Hit Hunter® cAMP assay to determine Gi-coupled agonist activity on the CB1 and CB2 receptors, the results of which are provided in Table 5.
(§2) The Hit Hunter® cAMP assay monitors the activation of a GPCR via Gi and […] secondary messenger signaling in a homogenous, non-imaging assay format using a technology developed by DiscoverX called Enzyme Fragment Complementation (EFC) with β-galactosidase (β-Gal) as the functional reporter. […] ED is fused to cAMP and in the assay competes with cAMP generated by cells for binding to a cAMP-specific antibody. Active β-Gal is formed by complementation of exogenous EA to any unbound ED cAMP. Active enzymes can then convert a chemiluminescent substrate, generating an output signal detectable on a standard microplate reader.
(§3) cAMP Hunter cell lines were expanded from freezer stocks according to standard procedures. Cells were seeded in a total volume of 20 μL into white walled, 384-well microplates and incubated at 37° C. for the appropriate time prior to testing. cAMP modulation was determined using the DiscoverX Hit Hunter cAMP XS+ assay. For Gi agonist activity determination, cells were incubated with sample in the presence of EC80 forskolin to induce response (20 μM and 25 μM in the CB1 and CB2 assays, respectively). Media was aspirated from cells and replaced with 15 μL 2:1 HBSS/10 mM HEPES:cAMP XS+Ab reagent.
(§4) Intermediate dilution of sample stocks was performed to generate 4× sample in assay buffer. 5 μL of 4× compound was added to cells and incubated at 37° C. or room temperature for 30 or 60 minutes. Final vehicle concentration was 1%. Assay signal was generated through incubation with 20 μL cAMP XS+ED/CL lysis cocktail for one hour at room temperature. Microplates were read following signal generation with a PerkinElmer Envision™ instrument for chemiluminescent signal detection. Compound activity was analyzed using CBIS data analysis suite (Chem Innovation, CA). For agonist assays, percentage activity was calculated using the following formula: % Activity=100%×(1−(mean RLU of test sample−mean RLU of Max control ligand)/(mean RLU of vehicle control−mean RLU of Max control ligand). Control ligand was the non-selective CB1/CB2 agonist CP55,940.

[2] = biological target: T1, CB1 receptor; assay: cell-based; set-up: host or cells: PathHunter cell lines
Description: (§5) The PathHunter® β-Arrestin assay monitors the activation of a GPCR in a homogenous, non-imaging assay format using a technology developed by DiscoverX called Enzyme Fragment Complementation (EFC) with β-galactosidase (3-Gal) as the functional reporter. […] EA is fused to β-Arrestin and PK is fused to the GPCR of interest.
(§6) PathHunter cell lines were expanded from freezer stocks according to standard procedures. Cells were seeded in a total volume of 20 μL into white walled, 384-well microplates and incubated at 37° C. for the appropriate time prior to testing. For agonist activity determination, cells were incubated with sample to induce response. Intermediate dilution of sample stocks was performed to generate 5× sample in assay buffer. 5 μL of 5× sample was added to cells and incubated at 37° C. or room temperature for 90 to 180 minutes. Vehicle concentration was 1%. Assay signal was generated through a single addition of 12.5 or 15 μL (50% v/v) of PathHunter Detection reagent cocktail, followed by a one hour incubation at room temperature. Microplates were read following signal generation with a PerkinElmer Envision™ instrument for chemiluminescent signal detection. Compound activity was analyzed using CBIS data analysis suite (ChemInnovation, CA). For agonist assays, percentage activity was calculated using the following formula: % Activity=100%×(mean RLU of test sample− mean RLU of vehicle control)/(mean MAX control ligand− mean RLU of vehicle control).

[3] = biological target: T2, CB2 receptor (Homo sapiens, UniProt P34972); assay: cAMP Assay #2: Hit Hunter cAMP assay, Gi-coupled agonist activity, CB2; assay type: cell-based; set-up: host or cells: cAMP Hunter cell lines; conditions: for CB2 fold selectivity: CB1 EC50 / CB2 EC50
T2 sequence (P34972 whole entry): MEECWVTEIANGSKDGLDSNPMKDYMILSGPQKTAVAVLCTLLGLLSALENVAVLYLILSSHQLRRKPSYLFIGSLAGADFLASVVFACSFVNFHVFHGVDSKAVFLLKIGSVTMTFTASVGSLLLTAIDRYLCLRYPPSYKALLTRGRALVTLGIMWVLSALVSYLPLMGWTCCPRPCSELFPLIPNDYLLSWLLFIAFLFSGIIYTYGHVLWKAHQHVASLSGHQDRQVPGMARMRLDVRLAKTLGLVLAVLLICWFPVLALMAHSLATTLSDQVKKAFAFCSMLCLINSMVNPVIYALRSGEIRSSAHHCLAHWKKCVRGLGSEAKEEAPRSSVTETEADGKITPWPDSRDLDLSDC
Description: as §1, §2, §3, §4

[4] = biological target: T2, CB2 receptor; assay: cell-based; set-up: host or cells: cAMP Hunter cell lines; conditions: PathHunter agonist mode; read-out: CB2 Activity (β-Arrestin)
Description: as §5, §6

[5] = biological target: T1, CB1 receptor; assay: CB1 competitive radioligand binding assay ([3H] SR141716A); set-up: expressed in transfected cells; host or cells: Chem-1 cells
Description: (§7) J Med Chem. 41(26): 5177-5187 (1998); and Munro S., et al. Molecular characterization of a peripheral receptor for cannabinoids. Nature 365:61-65 (1993).
CB1 Radioligand Binding Assay: A compound of the invention (0.5 μM in 1% DMSO) was incubated with Chem-1 cells expressing human recombinant CB1 receptor in buffer (50 mM HEPES, pH 7.4, 5 mM MgCl2, 1 mM CaCl2, 0.2% BSA) for 90 minutes at 37° C. in the presence of 2.0 nM [H^3] SR141716A (CB1 radioligand). % Inhibition was determined as a function of radioligand binding to the CB1 receptor.

[6] = biological target: T2, CB2 receptor; assay: CB2 competitive radioligand binding assay ([3H] WIN-55,212-2); set-up: expressed in transfected cells; host or cells: CHO-K1 cells
Description: as §7
CB2 Radioligand Binding Assay: A compound of the invention (0.05 μM in 1% DMSO) was incubated with CHO-K1 cells expressing human recombinant CB2 receptor in buffer (20 mM HEPES, pH 7.0, 0.5% BSA) for 90 minutes at 37° C. in the presence of 2.4 nM [H^3] WIN-55,212-2 (CB2 radioligand). % Inhibition was determined as a function of radioligand binding to the […].

[7] = PathHunter agonist mode, read-out: CB1 Activity (β-Arrestin)
[8] = Hit Hunter cAMP, 20 μM forskolin, control ligand CP55,940, read-out: CB1, EC50
[9] = Hit Hunter cAMP, 25 μM forskolin, control ligand CP55,940, read-out: CB2, EC50

T1 sequence (P21554 whole entry): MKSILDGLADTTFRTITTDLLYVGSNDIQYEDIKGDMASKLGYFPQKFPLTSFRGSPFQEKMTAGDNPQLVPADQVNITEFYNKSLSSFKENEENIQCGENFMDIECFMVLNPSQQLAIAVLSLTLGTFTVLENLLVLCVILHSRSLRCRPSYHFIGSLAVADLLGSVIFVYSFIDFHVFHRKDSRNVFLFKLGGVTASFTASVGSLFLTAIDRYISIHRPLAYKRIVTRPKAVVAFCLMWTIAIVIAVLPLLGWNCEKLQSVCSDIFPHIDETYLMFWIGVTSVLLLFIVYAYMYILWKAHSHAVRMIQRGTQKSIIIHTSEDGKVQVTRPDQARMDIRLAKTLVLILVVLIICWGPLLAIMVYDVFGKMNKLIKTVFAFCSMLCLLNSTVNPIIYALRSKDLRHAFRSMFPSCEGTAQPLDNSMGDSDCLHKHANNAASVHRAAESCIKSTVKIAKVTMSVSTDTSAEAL

`CCCCCCC(C)(C)c1cc(O)c2c(c1)OC(C)(C)[C@@H]1CC=C(C(=O)N[C@H]3C[C@@H](O)C3)C[C@@H]21` [Compound 46, (6aR,10aR)-1-hydroxy-N-((1 S,3S)-3-hydroxycyclobutyl)-6,6-dimethyl-3-(2-methyloctan-2-yl)-6a,7,10,10a-tetrahydro-6H-benzo[c]chromene-9-carboxamide] showed an EC50 [1] of 263 nM, an EC50 [2] of 6000 nM and an EC50 [3] of 8.4 nM. It also gave a CB2 fold selectivity ([3]; Hit Hunter cAMP) of 31.4, an EC50 [4] of 3.6 nM and a Ki [5] of 90.3 nM. The Ki [6] was 22.9 nM and the “Fold Selectivity (CB1/CB2)” value ([6]; Table 3, ratio of Ki CB1/CB2) was 3.9.

For `CCCCCCC(C)(C)c1cc(O)c2c(c1)OC(C)(C)[C@@H]1CC=C(C(=O)N[C@H]3C[C@H](O)C3)C[C@@H]21` [Compound 45, (6aR,10aR)-1-hydroxy-N-((1R,3R)-3-hydroxycyclobutyl)-6,6-dimethyl-3-(2-methyloctan-2-yl)-6a,7,10,10a-tetrahydro-6H-benzo[c]chromene-9-carboxamide], the EC50 [1] was 274 nM, the EC50 [2] was 4980 nM and the EC50 [3] was 12 nM. It also gave a CB2 fold selectivity ([3]; Hit Hunter cAMP) of 22.9, an EC50 [4] of 6 nM and a Ki [5] of 144 nM. The Ki [6] was 10.1 nM and the “Fold Selectivity (CB1/CB2)” value ([6]; Table 3, ratio of Ki CB1/CB2) was 14.3.

For `CCCCCCC(C)(C)c1cc(O)c2c(c1)OC(C)(C)[C@@H]1CC=C(C(=O)NO)C[C@@H]21` [Compound 105, (6aR,10aR)-N,1-dihydroxy-6,6-dimethyl-3-(2-methyloctan-2-yl)-6a,7,10,10a-tetrahydro-6H-benzo[c]chromene-9-carboxamide], the EC50 [1] was 11.4 nM, the EC50 [2] was 75.6 nM and the EC50 [3] was 11.2 nM. It also gave a CB2 fold selectivity ([3]; Hit Hunter cAMP) of 1.0, an EC50 [4] of 3.7 nM and a Ki [5] of 9.2 nM. The Ki [6] was 24.1 nM and the “Fold Selectivity (CB1/CB2)” value ([6]; Table 3, ratio of Ki CB1/CB2) was 0.4.

In the case of `CCCCCCC(C)(C)c1cc(O)c2c(c1)OC(C)(C)[C@@H]1CC=C(C(=O)NC(C)(C)C)C[C@@H]21` [Compound 95, (6aR,10aR)-N-(tert-butyl)-1-hydroxy-6,6-dimethyl-3-(2-methyloctan-2-yl)-6a,7,10,10a-tetrahydro-6H-benzo[c]chromene-9-carboxamide], the EC50 [1] is reported as 13.2 nM, the EC50 [2] is reported as 23.9 nM and the EC50 [3] is reported as 1.2 nM. For the same compound, the CB2 fold selectivity ([3]; Hit Hunter cAMP) was 11.0, the EC50 [4] was 1.3 nM and the Ki [5] was 31.1 nM. For the same compound, the Ki [6] was 3.2 nM and the “Fold Selectivity (CB1/CB2)” value ([6]; Table 3, ratio of Ki CB1/CB2) was 9.7.

Work on `CCCCCCC(C)(C)c1cc(O)c2c(c1)OC(C)(C)[C@@H]1CC=C(C(=O)NN3CCCCC3)C[C@@H]21` [Compound 48, (6aR,10aR)-1-hydroxy-6,6-dimethyl-3-(2-methyloctan-2-yl)-N-(piperidin-1-yl)-6a,7,10,10a-tetrahydro-6H-benzo[c]chromene-9-carboxamide] yielded an EC50 [1] greater than 3000 nM, an EC50 [2] greater than 3000 nM and an EC50 [3] of 7 nM. It also gave a CB2 fold selectivity ([3]; Hit Hunter cAMP) greater than 428, an EC50 [4] of 4.4 nM and a Ki [5] of 233 nM. The Ki [6] was 9.2 nM and the “Fold Selectivity (CB1/CB2)” value ([6]; Table 3, ratio of Ki CB1/CB2) was 25.3.

In the case of `CC(C)(CCCCCCO)c1cc(O)c2c(c1)OC(C)(C)[C@@H]1CC=C(C(=O)O)C[C@@H]21` [Compound 57, (6aR,10aR)-1-hydroxy-3-(8-hydroxy-2-methyloctan-2-yl)-6,6-dimethyl-6a,7,10,10a-tetrahydro-6H-benzo[c]chromene-9-carboxylic acid], the EC50 [1] is reported as 92.1 nM, the EC50 [2, 7] is reported as 290 nM and the EC50 [3] is reported as 39.7 nM. It also gave a CB2 fold selectivity ([3]; Hit Hunter cAMP) of 2.3, an EC50 [4] of 22 nM and a Ki [5] of 162 nM. The Ki [6] was 56.3 nM and the “Fold Selectivity (CB1/CB2)” value ([6]; Table 3, ratio of Ki CB1/CB2) was 2.9.

In the case of `CCCCCCC(C)(C)c1cc(O)c2c(c1)OC(C)(C)[C@@H]1CC=C(C(=O)NC3CCCCC3)C[C@@H]21` [Compound 16, (6aR,10aR)—N-Cyclohexyl-1-hydroxy-6,6-dimethyl-3-(2-methyloctan-2-yl)-6a,7,10,10a-tetrahydro-6H-benzo[c]chromene-9-carboxamide], the EC50 [1, 8] is reported as greater than 3000 nM, the EC50 [2, 7] is reported as greater than 3000 nM and the EC50 [3, 9] is reported as 2.7 nM. It also gave a CB2 fold selectivity ([3]; Hit Hunter cAMP) greater than 1000, an EC50 [4] of 5 nM and an inhibition at 0.5 µM ([5]; 0.5 μM compound, 2.0 nM [3H] SR141716A, 90 min 37° C.) of 84%. For the same compound, the Ki ([5]; Table 2, read-out: CB1 Binding Ki) was 94 nM, the inhibition at 0.05 µM ([6]; 0.05 μM compound, 2.4 nM [3H] WIN-55,212-2, 90 min 37° C.) was 57% and the “Fold Selectivity (CB1/CB2)” value ([6]; Table 2, ratio of Ki CB1/CB2) was 4. It also gave a Ki ([6]; Table 2, read-out: CB2 Binding Ki) of 26 nM.

In the case of `CCCCCCC(C)(C)c1cc(O)c2c(c1)OC(C)(C)[C@@H]1CC=C(C#N)C[C@@H]21` [Compound 112, (6aR,10aR)-1-hydroxy-6,6-dimethyl-3-(2-methyloctan-2-yl)-6a,7,10,10a-tetrahydro-6H-benzo[c]chromene-9-carbonitrile], the EC50 [2, 7] is reported as 2 nM, the EC50 [4] is reported as 1.4 nM and the Ki [5] is reported as 1 nM. The Ki [6] was 0.7 nM and the “Fold Selectivity (CB1/CB2)” value ([6]; Table 3, ratio of Ki CB1/CB2) was 1.4.

`CCCCCCC(C)(C)c1cc(O)c2c(c1)OC(C)(C)[C@@H]1CC=C(C(=O)NOCCO)C[C@@H]21` [Compound 41] showed an EC50 [1, 8] of 6.3 nM, an EC50 [2, 7] of 37.8 nM and an EC50 [3, 9] of 1.5 nM. For the same compound, the CB2 fold selectivity ([3]; Hit Hunter cAMP) was 4.3, the EC50 [4] was 1.8 nM and the Ki ([5]; Table 3, read-out: Ki CB1) was 27.4 nM. For the same compound, the “Fold Selectivity (CB1/CB2)” value ([6]; Table 3, ratio of Ki CB1/CB2) was 6.4 and the Ki ([6]; Table 3, read-out: Ki CB2) was 4.3 nM.
